Source: article PMC261875, “Biochemical Characterization of DNA Damage Checkpoint Complexes: Clamp Loader and Clamp Complexes with Specificity for 5′ Recessed DNA” (PLoS Biology, 2003)

Assays:
[1] = system: T1, RFC (replication factor C); assay: bead pull-down of clamp-clamp loader-DNA ternary complex, Western blot; format: binding; conditions: 1 mM ATPγS, 7 mM MgCl2, pH 7.5, 30 °C; PCNA clamp, human RPA, 3' recessed primer-template DNA; nonhydrolyzable ATP analog
T1 construct: gene RFC1

[2] = system: T2, RSR (Rad17–Rfc2–Rfc3–Rfc4–Rfc5) complex; assay: as above; format: binding; conditions: 1 mM ATPγS, 7 mM MgCl2, pH 7.5, 30 °C; RHR clamp, human RPA, 5' recessed primer-template DNA; nonhydrolyzable ATP analog
T2 construct: untagged
T2 sequence (O75943 whole entry): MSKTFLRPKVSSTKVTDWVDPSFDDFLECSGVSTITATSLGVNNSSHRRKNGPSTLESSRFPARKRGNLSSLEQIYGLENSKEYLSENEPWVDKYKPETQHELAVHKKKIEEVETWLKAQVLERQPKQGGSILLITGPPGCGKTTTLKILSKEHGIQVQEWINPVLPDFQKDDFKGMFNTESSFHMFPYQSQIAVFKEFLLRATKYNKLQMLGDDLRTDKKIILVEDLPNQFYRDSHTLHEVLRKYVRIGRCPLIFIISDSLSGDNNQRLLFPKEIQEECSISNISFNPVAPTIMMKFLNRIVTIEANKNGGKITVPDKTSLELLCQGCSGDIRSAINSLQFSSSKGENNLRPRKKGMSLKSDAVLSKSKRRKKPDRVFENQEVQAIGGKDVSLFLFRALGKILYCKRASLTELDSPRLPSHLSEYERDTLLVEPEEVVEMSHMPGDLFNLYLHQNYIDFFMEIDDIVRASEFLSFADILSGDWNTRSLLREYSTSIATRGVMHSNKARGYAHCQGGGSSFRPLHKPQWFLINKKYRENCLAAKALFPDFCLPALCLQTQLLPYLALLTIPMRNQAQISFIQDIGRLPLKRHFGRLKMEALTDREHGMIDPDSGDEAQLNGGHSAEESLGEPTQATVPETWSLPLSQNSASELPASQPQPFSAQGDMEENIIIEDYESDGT
T2 sequence (P35250 whole entry, further chain): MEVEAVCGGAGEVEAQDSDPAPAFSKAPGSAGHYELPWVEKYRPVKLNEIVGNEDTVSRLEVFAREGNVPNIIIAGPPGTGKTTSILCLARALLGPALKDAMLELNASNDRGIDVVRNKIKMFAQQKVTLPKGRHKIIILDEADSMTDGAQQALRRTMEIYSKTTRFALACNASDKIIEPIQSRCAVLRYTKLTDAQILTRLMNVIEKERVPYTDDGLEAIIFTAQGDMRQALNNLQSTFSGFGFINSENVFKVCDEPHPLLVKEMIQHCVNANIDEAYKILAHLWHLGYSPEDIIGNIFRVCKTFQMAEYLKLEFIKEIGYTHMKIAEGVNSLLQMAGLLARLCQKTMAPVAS
T2 sequence (P40938 whole entry, further chain): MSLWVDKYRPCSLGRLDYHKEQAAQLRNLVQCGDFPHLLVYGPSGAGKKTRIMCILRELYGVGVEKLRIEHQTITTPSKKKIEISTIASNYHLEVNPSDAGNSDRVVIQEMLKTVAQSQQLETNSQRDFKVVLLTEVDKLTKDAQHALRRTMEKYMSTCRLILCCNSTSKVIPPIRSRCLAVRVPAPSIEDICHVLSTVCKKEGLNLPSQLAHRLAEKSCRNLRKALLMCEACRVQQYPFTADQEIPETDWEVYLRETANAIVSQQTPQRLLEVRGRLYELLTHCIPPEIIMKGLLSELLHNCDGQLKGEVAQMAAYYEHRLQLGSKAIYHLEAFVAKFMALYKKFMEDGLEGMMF
T2 sequence (P35249 whole entry, further chain): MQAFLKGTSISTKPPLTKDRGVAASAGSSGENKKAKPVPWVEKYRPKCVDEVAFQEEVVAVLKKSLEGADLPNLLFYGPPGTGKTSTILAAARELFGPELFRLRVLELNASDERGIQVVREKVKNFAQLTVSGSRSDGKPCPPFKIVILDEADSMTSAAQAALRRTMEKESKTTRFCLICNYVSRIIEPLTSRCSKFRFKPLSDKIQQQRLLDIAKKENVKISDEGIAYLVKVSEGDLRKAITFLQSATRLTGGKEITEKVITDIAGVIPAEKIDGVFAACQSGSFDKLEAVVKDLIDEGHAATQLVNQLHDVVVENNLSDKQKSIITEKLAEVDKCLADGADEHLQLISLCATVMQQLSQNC
T2 sequence (P40937 whole entry, further chain): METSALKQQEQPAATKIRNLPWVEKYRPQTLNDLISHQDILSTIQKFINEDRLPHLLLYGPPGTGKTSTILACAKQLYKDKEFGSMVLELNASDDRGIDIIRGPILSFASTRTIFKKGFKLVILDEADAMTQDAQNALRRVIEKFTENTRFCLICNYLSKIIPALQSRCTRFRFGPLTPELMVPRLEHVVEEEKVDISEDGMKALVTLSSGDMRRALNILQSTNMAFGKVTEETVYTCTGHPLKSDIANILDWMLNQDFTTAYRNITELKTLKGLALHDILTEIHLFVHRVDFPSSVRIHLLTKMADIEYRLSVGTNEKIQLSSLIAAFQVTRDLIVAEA

T1 sequence (P35251 whole entry): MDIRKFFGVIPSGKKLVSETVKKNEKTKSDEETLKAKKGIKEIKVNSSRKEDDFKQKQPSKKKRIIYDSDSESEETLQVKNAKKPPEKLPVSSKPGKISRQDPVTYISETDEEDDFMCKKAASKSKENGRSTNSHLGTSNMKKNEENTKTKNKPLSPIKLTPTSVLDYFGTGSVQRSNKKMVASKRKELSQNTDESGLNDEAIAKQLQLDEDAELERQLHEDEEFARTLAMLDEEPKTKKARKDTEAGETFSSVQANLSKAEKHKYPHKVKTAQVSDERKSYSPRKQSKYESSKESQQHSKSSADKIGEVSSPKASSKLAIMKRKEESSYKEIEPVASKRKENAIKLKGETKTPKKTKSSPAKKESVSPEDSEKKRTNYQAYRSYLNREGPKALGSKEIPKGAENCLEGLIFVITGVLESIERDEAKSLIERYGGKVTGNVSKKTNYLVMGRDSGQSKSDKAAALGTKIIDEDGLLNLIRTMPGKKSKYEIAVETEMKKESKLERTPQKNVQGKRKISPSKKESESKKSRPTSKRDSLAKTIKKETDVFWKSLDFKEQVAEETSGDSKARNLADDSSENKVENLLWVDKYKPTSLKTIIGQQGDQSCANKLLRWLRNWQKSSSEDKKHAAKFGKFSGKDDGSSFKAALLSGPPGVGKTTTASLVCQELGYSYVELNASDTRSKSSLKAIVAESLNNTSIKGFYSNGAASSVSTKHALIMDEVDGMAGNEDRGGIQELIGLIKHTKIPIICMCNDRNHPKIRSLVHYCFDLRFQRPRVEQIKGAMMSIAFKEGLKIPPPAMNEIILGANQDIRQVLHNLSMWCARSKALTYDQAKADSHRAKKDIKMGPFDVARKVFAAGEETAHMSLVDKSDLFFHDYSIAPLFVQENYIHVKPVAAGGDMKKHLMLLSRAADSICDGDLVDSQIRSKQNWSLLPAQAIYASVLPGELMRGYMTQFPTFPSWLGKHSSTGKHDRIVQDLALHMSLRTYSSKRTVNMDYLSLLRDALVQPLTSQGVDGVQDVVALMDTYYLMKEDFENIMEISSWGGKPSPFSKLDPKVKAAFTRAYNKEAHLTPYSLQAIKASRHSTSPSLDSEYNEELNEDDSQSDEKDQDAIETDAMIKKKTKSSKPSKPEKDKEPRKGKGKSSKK
T1 sequence (P35250 whole entry, further chain): as the sequence (P35250 whole entry, further chain) above
T1 sequence (P40938 whole entry, further chain): as the sequence (P40938 whole entry, further chain) above
T1 sequence (P35249 whole entry, further chain): as the sequence (P35249 whole entry, further chain) above
T1 sequence (P40937 whole entry, further chain): as the sequence (P40937 whole entry, further chain) above

Nc1ncnc2c1ncn2[C@@H]1O[C@H](COP(=O)(O)OP(=O)(O)OP(O)(O)=S)[C@@H](O)[C@H]1O [ATPγS, adenosine 5′-O-3′-thiotriphosphate]
bead pull-down of clamp-clamp loader-DNA ternary complex, Western blot [1]: ternary complex formation on both substrates in the presence of ATPγS was observed
bead pull-down of clamp-clamp loader-DNA ternary complex, Western blot [2]: in the presence of ATPγS ternary complex formation, but not clamp loading
